According to publication PMC3375280 (PLoS ONE, 2012):
Residue numbers refer to the chain shown, from its start.

What was measured:
[1] = target: T1, AT1 C76A/S115C/C289A mutant receptor (Rattus norvegicus, UniProt P25095, C289A/C76A/S115C); assay: competition binding, C76A/S115C/C289A mutant; details: for Kd ratio relative to WT (in parentheses): C76A/S115C/C289A / WT; for Kd: C76A/S115C/C289A, COS1 membranes, read-out: Binding affinity (Kd)
T1 construct: expressed in transfected cells; host or cells: COS1 cells (membranes)
T1 sequence (P25095 1-359 C76A/S115C/C289A): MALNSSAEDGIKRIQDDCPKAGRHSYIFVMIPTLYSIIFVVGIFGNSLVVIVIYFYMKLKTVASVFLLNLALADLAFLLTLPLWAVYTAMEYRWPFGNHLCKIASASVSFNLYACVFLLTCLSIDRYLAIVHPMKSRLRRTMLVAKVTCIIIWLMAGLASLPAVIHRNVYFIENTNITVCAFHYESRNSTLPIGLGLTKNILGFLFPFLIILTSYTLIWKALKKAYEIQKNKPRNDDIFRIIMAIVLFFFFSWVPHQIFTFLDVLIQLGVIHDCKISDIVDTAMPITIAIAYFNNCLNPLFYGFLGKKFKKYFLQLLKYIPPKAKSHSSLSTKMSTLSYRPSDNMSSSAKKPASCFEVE
Experimental: (§1) The Kd and Bmax values of receptor binding were determined by ^125I-[Sar^1, Ile^8] […] Membranes expressing the WT or mutant AT1 receptors were incubated with 100 pM ^125I-[Sar^1, Ile^8] […] The binding reaction was terminated by filtering the incubation mixture through Whatman GF/C glass filters, and the residues were extensively washed further with binding buffer. The bound ligand fraction was determined from the counts per minute (cpm) remaining on the membrane. Binding kinetics values were determined as previously described.

[2] = target: T2, AT1 S109A mutant receptor (Rattus norvegicus, UniProt P25095, S109A); assay: competition binding, S109A mutant; details: for Kd ratio relative to WT (in parentheses): S109A / WT; for Kd: S109A, COS1 membranes, read-out: Binding affinity (Kd)
T2 construct: expressed in transfected cells; host or cells: COS1
T2 sequence (P25095 1-359 S109A): T1 sequence (P25095 1-359 C76A/S115C/C289A) with A76C, S109A, C115S, A289C
Experimental: as §1

[3] = target: T3, AT1 C76A/V116C/C289A mutant receptor (Rattus norvegicus, UniProt P25095, C289A/C76A/V116C); assay: competition binding, C76A/V116C/C289A mutant; details: for Kd ratio relative to WT (in parentheses): C76A/V116C/C289A / WT; for Kd: C76A/V116C/C289A, COS1 membranes, read-out: Binding affinity (Kd)
T3 construct: expressed in transfected cells; host or cells: COS1 cells (membranes)
T3 sequence (P25095 1-359 C76A/V116C/C289A): T1 sequence (P25095 1-359 C76A/S115C/C289A) with C115S, V116C
Experimental: as §1

[4] = target: T4, AT1 Y113A mutant receptor (Rattus norvegicus, UniProt P25095, Y113A); assay: competition binding, Y113A mutant; details: for Kd ratio relative to WT (in parentheses): Y113A / WT; for Kd: Y113A, COS1 membranes, read-out: Binding affinity (Kd)
T4 construct: expressed in transfected cells; host or cells: COS1
T4 sequence (P25095 1-359 Y113A): T1 sequence (P25095 1-359 C76A/S115C/C289A) with A76C, Y113A, C115S, A289C
Experimental: as §1

[5] = target: T5, AT1 C76A/N111C/C289A mutant receptor (Rattus norvegicus, UniProt P25095, C289A/C76A/N111C); assay: competition binding, C76A/N111C/C289A mutant; details: for Kd ratio relative to WT (in parentheses): C76A/N111C/C289A / WT; for Kd: C76A/N111C/C289A, COS1 membranes, read-out: Binding affinity (Kd)
T5 construct: expressed in transfected cells; host or cells: COS1
T5 sequence (P25095 1-359 C76A/N111C/C289A): T1 sequence (P25095 1-359 C76A/S115C/C289A) with N111C, C115S
Experimental: as §1

[6] = target: T6, AT1 V116A mutant receptor (Rattus norvegicus, UniProt P25095, V116A); assay: competition binding, V116A mutant; details: for Kd ratio relative to WT (in parentheses): V116A / WT; for Kd: V116A, COS1 membranes, read-out: Binding affinity (Kd)
T6 construct: expressed in transfected cells; host or cells: COS1
T6 sequence (P25095 1-359 V116A): T1 sequence (P25095 1-359 C76A/S115C/C289A) with A76C, C115S, V116A, A289C
Experimental: as §1

Kd ratio relative to WT (in parentheses) [1] | Kd [1] | Kd ratio relative to WT (in parentheses) [2] | Kd [2] | Kd ratio relative to WT (in parentheses) [3] | Kd [3] | Kd ratio relative to WT (in parentheses) [4] | Kd [4] | Kd ratio relative to WT (in parentheses) [5] | Kd [5] | Kd ratio relative to WT (in parentheses) [6] | Kd [6] | Compound
2.8 fold | 6.5 ± 1.8 nM | 1.1 fold | 2.5 ± 0.8 nM | 2.7 fold | 6.2 ± 1.7 nM | 5.2 fold | 12 ± 3 nM | 5.2 fold | 12 ± 4 nM | 3.8 fold | 8.8 ± 1.2 nM | CCCc1nc(C(C)(C)O)c(C(=O)O)n1Cc1ccc(-c2ccccc2-c2nnn[nH]2)cc1 [Olmesartan, olmesartan, reference compound]
14 fold | 657 ± 114 nM | 0.7 fold | 34 ± 11 nM | 0.8 fold | 39 ± 3 nM | 38 fold | 1800 ± 205 nM | 3.8 fold | 180 ± 94 nM | 45 fold | 2150 ± 802 nM | CCCc1nc(C(C)(C)O)c(C(N)=O)n1Cc1ccc(-c2cc(Cc3ccc(O)cc3)ccc2-c2nnn[nH]2)cc1 [R794847]
5.3 fold | 4.2 ± 1.6 nM | 1.1 fold | 0.9 ± 0.2 nM | 3.1 fold | 2.5 ± 1 nM | 183 fold | 146 ± 15 nM | 6.8 fold | 5.4 ± 3 nM | 3.2 fold | 2.6 ± 0.7 nM | CCCc1nc(C(C)(C)O)c(C(N)=O)n1Cc1ccc(-c2ccccc2-c2nnn[nH]2)cc1 [R239470]
